The values below come from ChEMBL document CHEMBL3991601, “The target landscape of clinical kinase drugs” (Science, 2017).

The target in one experiment is T1, Ephrin type-A receptor 1 (Homo sapiens, UniProt P21709).
T1 sequence (P21709 whole entry): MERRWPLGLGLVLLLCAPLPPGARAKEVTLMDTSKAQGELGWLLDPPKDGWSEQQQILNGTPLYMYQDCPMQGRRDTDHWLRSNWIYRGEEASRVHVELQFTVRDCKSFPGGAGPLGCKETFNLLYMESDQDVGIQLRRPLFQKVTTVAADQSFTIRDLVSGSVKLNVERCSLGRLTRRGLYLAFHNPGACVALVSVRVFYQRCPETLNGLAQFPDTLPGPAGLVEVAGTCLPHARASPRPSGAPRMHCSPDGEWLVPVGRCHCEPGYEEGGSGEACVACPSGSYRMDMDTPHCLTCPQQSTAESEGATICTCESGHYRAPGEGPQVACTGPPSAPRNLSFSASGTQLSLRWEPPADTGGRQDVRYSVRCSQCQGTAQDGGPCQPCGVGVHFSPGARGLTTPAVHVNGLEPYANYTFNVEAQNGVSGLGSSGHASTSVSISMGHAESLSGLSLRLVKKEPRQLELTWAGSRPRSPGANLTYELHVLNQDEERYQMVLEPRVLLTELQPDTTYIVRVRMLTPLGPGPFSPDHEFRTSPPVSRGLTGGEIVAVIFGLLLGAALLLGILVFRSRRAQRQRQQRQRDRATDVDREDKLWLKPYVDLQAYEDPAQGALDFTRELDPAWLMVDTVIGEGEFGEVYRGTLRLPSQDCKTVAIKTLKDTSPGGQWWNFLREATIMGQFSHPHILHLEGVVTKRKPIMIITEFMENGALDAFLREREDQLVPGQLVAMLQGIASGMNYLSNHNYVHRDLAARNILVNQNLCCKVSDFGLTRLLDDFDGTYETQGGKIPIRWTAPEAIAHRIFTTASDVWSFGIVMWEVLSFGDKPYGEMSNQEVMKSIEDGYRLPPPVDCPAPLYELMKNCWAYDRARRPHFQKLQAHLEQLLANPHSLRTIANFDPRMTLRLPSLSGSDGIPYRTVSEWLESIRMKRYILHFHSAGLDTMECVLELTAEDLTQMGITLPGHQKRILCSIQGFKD

In experiment [1] the target is Serine/threonine-protein kinase N3 (Homo sapiens, UniProt Q6P5Z2).
Experiment [2] concerns the target Tyrosine-protein kinase Lck (Homo sapiens, UniProt P06239).
Experiment [3] addresses Protein kinase C theta type (Homo sapiens, UniProt Q04759).
Experiment [4] concerns the target Cyclin-dependent kinase 17 (Homo sapiens, UniProt Q00537).
The next experiment addresses Focal adhesion kinase 1 (Homo sapiens, UniProt Q05397).
The target of experiment [5] is T2, Cyclin-dependent kinase-like 5 (Homo sapiens, UniProt O76039).
T2 sequence (O76039 whole entry): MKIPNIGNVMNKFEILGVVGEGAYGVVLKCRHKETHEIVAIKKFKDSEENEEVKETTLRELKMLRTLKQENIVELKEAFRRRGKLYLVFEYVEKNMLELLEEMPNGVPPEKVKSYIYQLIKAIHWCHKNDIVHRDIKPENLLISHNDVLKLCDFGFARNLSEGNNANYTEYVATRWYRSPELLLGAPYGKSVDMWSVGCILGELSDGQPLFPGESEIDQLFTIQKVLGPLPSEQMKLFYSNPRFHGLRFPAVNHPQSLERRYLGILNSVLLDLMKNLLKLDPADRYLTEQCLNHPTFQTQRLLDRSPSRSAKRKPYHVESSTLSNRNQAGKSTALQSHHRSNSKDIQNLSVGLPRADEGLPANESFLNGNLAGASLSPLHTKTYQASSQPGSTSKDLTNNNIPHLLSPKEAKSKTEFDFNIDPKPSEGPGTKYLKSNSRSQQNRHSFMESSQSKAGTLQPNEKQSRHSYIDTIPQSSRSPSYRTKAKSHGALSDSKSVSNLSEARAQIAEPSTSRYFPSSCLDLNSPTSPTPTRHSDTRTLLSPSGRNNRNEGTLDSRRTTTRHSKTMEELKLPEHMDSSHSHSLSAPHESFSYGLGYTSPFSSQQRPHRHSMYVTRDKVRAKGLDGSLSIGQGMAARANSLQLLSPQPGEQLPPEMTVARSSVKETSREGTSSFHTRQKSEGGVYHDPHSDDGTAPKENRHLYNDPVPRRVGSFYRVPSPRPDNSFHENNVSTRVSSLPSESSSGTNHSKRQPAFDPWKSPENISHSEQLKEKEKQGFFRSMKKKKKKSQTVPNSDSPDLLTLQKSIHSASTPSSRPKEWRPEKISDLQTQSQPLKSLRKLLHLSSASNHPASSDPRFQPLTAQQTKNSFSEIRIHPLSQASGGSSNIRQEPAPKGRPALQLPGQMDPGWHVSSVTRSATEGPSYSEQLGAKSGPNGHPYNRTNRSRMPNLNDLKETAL

The term Kd denotes the constant that tells how readily two partners part at equilibrium.

Structures are written as SMILES. Activity calls are given as the source filed them. Rule as the data show it, for most assays here: actives have a measured Kd and inactives only a lower limit.
Also: in the data inactive means no Kd found up to 30 µM.

Sequence of Cyclin-dependent kinase 17 (Q00537 whole entry): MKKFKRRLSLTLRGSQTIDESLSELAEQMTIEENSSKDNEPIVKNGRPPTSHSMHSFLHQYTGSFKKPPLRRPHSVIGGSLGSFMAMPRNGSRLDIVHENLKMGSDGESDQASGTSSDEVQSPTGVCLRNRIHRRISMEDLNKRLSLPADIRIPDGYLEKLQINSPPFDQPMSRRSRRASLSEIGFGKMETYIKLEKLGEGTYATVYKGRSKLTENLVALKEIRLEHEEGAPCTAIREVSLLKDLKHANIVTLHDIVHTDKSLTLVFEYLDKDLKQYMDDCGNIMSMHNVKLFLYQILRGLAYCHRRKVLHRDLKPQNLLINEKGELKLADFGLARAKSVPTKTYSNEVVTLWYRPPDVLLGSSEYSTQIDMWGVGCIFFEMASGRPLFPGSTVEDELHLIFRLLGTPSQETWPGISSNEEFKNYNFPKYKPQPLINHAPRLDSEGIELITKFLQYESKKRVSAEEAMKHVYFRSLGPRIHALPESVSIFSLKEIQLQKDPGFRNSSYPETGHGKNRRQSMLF
Sequence of Protein kinase C theta type (Q04759 whole entry): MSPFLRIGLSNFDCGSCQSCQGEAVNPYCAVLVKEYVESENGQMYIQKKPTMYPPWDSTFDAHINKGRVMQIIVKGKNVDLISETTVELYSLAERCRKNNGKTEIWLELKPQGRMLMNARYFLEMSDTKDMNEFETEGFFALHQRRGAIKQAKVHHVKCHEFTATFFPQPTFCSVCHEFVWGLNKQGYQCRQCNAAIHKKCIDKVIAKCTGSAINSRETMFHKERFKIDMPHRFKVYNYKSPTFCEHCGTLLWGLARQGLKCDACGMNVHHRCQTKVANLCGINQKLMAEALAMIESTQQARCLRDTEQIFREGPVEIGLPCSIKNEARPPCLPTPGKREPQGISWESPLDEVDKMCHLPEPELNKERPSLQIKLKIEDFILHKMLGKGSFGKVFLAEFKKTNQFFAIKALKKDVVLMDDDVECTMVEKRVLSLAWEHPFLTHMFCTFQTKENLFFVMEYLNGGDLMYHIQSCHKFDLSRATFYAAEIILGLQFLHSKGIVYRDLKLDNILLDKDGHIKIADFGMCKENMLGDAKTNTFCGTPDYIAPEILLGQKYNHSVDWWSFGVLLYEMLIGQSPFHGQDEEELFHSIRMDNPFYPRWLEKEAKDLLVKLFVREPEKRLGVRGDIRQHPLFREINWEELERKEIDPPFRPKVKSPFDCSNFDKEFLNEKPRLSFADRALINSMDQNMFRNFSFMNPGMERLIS
Sequence of Focal adhesion kinase 1 (Q05397 whole entry): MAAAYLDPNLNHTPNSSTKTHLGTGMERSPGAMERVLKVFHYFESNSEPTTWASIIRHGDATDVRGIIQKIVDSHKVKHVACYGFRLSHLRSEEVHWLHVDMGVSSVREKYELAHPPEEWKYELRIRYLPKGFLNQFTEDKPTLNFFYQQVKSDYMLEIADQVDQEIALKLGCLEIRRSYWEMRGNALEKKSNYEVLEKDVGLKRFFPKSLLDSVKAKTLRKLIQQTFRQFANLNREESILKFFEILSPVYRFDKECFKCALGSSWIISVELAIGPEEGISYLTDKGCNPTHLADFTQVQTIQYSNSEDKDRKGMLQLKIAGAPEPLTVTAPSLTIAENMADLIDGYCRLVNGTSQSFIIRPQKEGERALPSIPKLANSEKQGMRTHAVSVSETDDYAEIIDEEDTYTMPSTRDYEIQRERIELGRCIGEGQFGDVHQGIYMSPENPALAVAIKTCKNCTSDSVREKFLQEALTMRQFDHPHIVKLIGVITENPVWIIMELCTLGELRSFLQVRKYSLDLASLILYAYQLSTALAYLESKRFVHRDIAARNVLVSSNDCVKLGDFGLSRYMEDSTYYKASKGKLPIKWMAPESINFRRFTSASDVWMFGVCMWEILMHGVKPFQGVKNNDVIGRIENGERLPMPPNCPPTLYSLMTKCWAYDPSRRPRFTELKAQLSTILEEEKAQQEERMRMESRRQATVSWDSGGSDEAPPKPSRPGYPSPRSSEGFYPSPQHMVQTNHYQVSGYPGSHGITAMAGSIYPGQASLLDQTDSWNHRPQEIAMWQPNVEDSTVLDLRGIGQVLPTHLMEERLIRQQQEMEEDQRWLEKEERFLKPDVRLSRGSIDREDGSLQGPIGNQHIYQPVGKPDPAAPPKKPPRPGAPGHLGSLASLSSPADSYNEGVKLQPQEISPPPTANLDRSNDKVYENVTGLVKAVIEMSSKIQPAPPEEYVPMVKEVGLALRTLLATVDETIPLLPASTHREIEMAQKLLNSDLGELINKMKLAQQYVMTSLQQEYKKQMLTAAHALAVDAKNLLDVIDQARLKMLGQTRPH
Sequence of Tyrosine-protein kinase Lck (P06239 whole entry): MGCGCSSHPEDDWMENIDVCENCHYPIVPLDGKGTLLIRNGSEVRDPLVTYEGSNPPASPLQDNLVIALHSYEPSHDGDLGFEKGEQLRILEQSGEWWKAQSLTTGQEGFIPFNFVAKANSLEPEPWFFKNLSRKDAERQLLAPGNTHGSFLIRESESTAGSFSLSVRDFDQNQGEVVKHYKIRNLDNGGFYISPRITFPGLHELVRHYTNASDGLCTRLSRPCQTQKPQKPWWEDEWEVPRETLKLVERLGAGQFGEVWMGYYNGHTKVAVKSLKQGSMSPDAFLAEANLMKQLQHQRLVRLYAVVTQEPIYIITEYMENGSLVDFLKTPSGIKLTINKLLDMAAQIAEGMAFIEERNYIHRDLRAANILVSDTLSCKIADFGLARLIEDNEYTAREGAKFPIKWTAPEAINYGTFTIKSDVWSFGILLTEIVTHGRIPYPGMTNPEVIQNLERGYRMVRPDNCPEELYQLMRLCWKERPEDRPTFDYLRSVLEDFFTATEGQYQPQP
Sequence of Serine/threonine-protein kinase N3 (Q6P5Z2 whole entry): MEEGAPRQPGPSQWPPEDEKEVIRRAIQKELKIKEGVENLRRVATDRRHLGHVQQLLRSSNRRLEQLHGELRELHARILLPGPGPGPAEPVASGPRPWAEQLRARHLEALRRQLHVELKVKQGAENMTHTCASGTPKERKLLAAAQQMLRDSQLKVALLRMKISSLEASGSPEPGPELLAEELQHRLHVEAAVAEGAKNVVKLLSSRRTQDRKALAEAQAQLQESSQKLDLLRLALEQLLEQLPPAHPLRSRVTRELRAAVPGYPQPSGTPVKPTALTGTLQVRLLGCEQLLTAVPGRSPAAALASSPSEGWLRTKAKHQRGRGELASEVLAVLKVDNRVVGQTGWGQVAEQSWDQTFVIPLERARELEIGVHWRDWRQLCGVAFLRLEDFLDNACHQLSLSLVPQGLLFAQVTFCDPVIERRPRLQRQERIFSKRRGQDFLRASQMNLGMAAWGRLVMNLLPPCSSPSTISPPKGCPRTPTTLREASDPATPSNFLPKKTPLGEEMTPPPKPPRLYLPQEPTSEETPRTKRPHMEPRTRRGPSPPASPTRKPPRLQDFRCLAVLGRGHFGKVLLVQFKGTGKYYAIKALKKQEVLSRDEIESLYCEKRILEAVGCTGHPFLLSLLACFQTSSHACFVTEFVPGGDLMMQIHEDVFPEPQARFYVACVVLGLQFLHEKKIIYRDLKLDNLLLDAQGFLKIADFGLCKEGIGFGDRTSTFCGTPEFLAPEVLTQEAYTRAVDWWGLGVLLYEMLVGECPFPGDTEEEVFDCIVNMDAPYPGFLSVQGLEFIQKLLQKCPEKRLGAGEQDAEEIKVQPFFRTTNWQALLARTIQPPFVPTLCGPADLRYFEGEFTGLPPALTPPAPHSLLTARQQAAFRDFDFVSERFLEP

Turning to `Cc1cc(Nc2nc(N[C@@H](C)c3ncc(F)cn3)ncc2Cl)n[nH]1` [AZD-1480], the Kd at Ephrin type-A receptor 1 is > 30 µM (inactive); in experiment [1], > 30 µM (inactive); in experiment [2], > 30 µM (inactive); in experiment [3], > 30 µM (inactive); in experiment [4] it was > 30 µM (inactive); on Focal adhesion kinase 1, 0.191 µM (active). In addition, the Kd in experiment [5] was > 30 µM (inactive).
Consider `O=C(Nc1ccc(OC(F)(F)F)cc1)c1sccc1NCc1ccnc2ccccc12` [OSI-930], for which the Kd (on Ephrin type-A receptor 1; in experiment [1]; in experiment [2]; in experiment [3]; in experiment [4]; on Focal adhesion kinase 1) was > 30 µM (inactive) throughout. Further, the Kd in experiment [5] is > 30 µM (inactive).
Regarding `CN1CCN(c2nc(C3=C(c4c[nH]c5ccccc45)C(=O)NC3=O)c3ccccc3n2)CC1` [SOTRASTAURIN], the Kd on Ephrin type-A receptor 1 was > 30 µM (inactive); in experiment [1] it was > 30 µM (inactive); in experiment [2], > 30 µM (inactive); in experiment [3], 0.013 µM (active); in experiment [4], > 30 µM (inactive); at Focal adhesion kinase 1 it was > 30 µM (inactive). The Kd in experiment [5] was > 30 µM (inactive).
With `Cn1cc(-c2[nH]c3cc(NC(=O)[C@H](N)C4CCCCC4)cc4c3c2C=NNC4=O)cn1`, the Kd on Ephrin type-A receptor 1 is > 30 µM (inactive); in experiment [1] it was > 30 µM (inactive); in experiment [2] it was 1.38 µM (active); in experiment [3], > 30 µM (inactive); in experiment [4], > 30 µM (inactive); at Focal adhesion kinase 1, > 30 µM (inactive). In experiment [5], the Kd was > 30 µM (inactive).
With `C[C@@H]1COC(Nc2ccc3ncnc(Nc4ccc(OCc5nccs5)c(Cl)c4)c3c2)=N1` [VARLITINIB], the Kd (at Ephrin type-A receptor 1; in experiment [1]; in experiment [2]; in experiment [3]; in experiment [4]; at Focal adhesion kinase 1) was > 30 µM (inactive) in each case. Besides, the Kd in experiment [5] is > 30 µM (inactive).
Turning to `CCc1cc2c(cc1N1CCC(N3CCOCC3)CC1)C(C)(C)c1[nH]c3cc(C#N)ccc3c1C2=O` [ALECTINIB], the Kd at Ephrin type-A receptor 1 was 0.193 µM (active); in experiment [1], > 30 µM (inactive); in experiment [2], > 30 µM (inactive); in experiment [3], > 30 µM (inactive); in experiment [4], > 30 µM (inactive); on Focal adhesion kinase 1 it was > 30 µM (inactive). The Kd in experiment [5] was > 30 µM (inactive).
`C#Cc1cccc(Nc2ncnc3cc4c(cc23)OCCOCCOCCO4)c1` [ICOTINIB]: the Kd (on Ephrin type-A receptor 1; in experiment [1]; in experiment [2]; in experiment [3]; in experiment [4]; on Focal adhesion kinase 1) was > 30 µM (inactive) each time. Besides, the Kd in experiment [5] is > 30 µM (inactive).
`COc1ccc2c(OCc3nnc4ccc(-c5ccccc5)nn34)ccnc2c1` [AMG-208]: the Kd (on Ephrin type-A receptor 1; in experiment [1]; in experiment [2]; in experiment [3]; in experiment [4]; at Focal adhesion kinase 1) was > 30 µM (inactive) throughout. The Kd in experiment [5] was > 30 µM (inactive).
Turning to `c1cc(OCCN2CCCCC2)cc(-c2n[nH]c3ccc(-c4nc[nH]n4)cc23)c1` [CC-401], the Kd (on Ephrin type-A receptor 1; in experiment [1]; in experiment [2]; in experiment [3]; in experiment [4]; on Focal adhesion kinase 1) was > 30 µM (inactive) each time. In experiment [5], the Kd is > 30 µM (inactive).
Regarding `NC(=O)c1ccc(N(C(N)=O)c2c(F)cccc2F)nc1-c1ccc(F)cc1F` [VX-702], the Kd (at Ephrin type-A receptor 1; in experiment [1]; in experiment [2]; in experiment [3]; in experiment [4]; at Focal adhesion kinase 1) was > 30 µM (inactive) each time. The Kd in experiment [5] was > 30 µM (inactive).
For the compound `COc1cc2ncnc(Nc3ccc(O)cc3)c2cc1OC` [WHI-P131], the Kd (on Ephrin type-A receptor 1; in experiment [1]; in experiment [2]; in experiment [3]; in experiment [4]; on Focal adhesion kinase 1) was > 30 µM (inactive) in each case. Also, the Kd in experiment [5] is > 30 µM (inactive).
Take `C=CC(=O)Nc1cc(Nc2nccc(-c3cn(C)c4ccccc34)n2)c(OC)cc1N(C)CCN(C)C` [OSIMERTINIB]: the Kd (on Ephrin type-A receptor 1; in experiment [1]; in experiment [2]; in experiment [3]; in experiment [4]; at Focal adhesion kinase 1) was > 30 µM (inactive) in each case. Moreover, the Kd in experiment [5] was > 30 µM (inactive).
As to `O[C@H]1CC[C@H](Nc2ncc3nc(Nc4c(F)cc(F)cc4F)n([C@H]4CCOC4)c3n2)CC1` [TANZISERTIB], the Kd (on Ephrin type-A receptor 1; in experiment [1]; in experiment [2]; in experiment [3]; in experiment [4]; on Focal adhesion kinase 1) was > 30 µM (inactive) each time. In addition, in experiment [5], the Kd is > 30 µM (inactive).
